What all share (assay): SPR equilibrium binding to sparsely-tethered bilayer (stBLM)
For assay [1], the target named is T1, wt PTEN (Homo sapiens, UniProt P60484).
T1 construct: full-length, six-histidine tag at the C-terminus, expressed in Escherichia coli BL21 (DE3)
The conditions noted are these: for Kd: read-out: Kd (μM) / Component a. From the text:
(§1) SPR equilibrium binding to sparsely-tethered bilayer (stBLM) on wt PTEN

For assay [2], the target named is T2, wt PTEN (Homo sapiens, UniProt P60484, C124S).
T2 construct: full-length, six-histidine tag at the C-terminus, expressed in Escherichia coli BL21 (DE3)
From the text: as §1

Assay [3] addresses T3, wt PTEN (Homo sapiens, UniProt P60484, H93R).
T3 construct: full-length, six-histidine tag at the C-terminus, expressed in Escherichia coli BL21 (DE3)
The conditions noted are these: DOPC:PI(4,5)P2 97.8:2.2 bilayer, pH 7.0, room temperature.
From the text: as §1

The next assay concerns the target T4, truncated PTEN (Homo sapiens, UniProt P60484, DEL286-309).
T4 construct: crystallization construct: residues 1-6, loop 286-309 and C-terminal tail 354-403 deleted; plasmid from N. R. Leslie; expressed in E. coli, His-tag purified
The conditions noted are these: DOPC:PI(4,5)P2 97.8:2.2 bilayer, pH 7.0, room temperature. From the text: SPR equilibrium binding to sparsely-tethered bilayer (stBLM) on truncated PTEN

Like-named read-outs stand apart in the source and are kept apart here.

In the case of `CCCCCCCCCCCCCCCC(=O)OC[C@H](COP(=O)(O)O[C@@H]1[C@H](O)[C@H](O)[C@@H](OP(=O)(O)O)[C@H](OP(=O)(O)O)[C@H]1O)OC(=O)CCCCCCCCCCCCCCC` [DPPI(4,5)P2], the Kd at wt PTEN [1] came to 1.9 ± 0.3 µM.

With `CCCCCCCCCCCCCCCC(=O)OC[C@H](COP(=O)(O)O[C@H]1[C@H](O)[C@@H](OP(=O)(O)O)[C@H](OP(=O)(O)O)[C@@H](OP(=O)(O)O)[C@H]1O)OC(=O)CCCCCCCCCCCCCCC` [PI(3,4,5)P3], at wt PTEN [1] (DOPC:PI(3,4,5)P3 97.9:2.1 bilayer, pH 7.0, room temperature, unreliable (active enzyme likely converts the lipid during the measurement)), the “Kd (μM) / Component a” value was 2.4 ± 0.2 µM. Moreover, the Kd on wt PTEN [2] was found to be 120 ± 30 nM.

As to PI(4,5)P2, the Kd on wt PTEN [3] turned out to be 1300 ± 200 nM; on wt PTEN [1] (DOPC:PI(4,5)P2 97.8:2.2 bilayer (same Kd at 0.7 and 3.7 mol%), 100 mM NaCl, 10 mM HEPES, 1 mM EDTA, pH 7.0, room temperature, Kd as protein concentration at half saturation), 0.4 ± 0.1 µM; at wt PTEN [2] (DOPC:PI(4,5)P2 97.8:2.2 bilayer, pH 7.0, room temperature), 320 ± 30 nM; at truncated PTEN, 770 ± 70 nM.

(Values after paper PMC3323581, “Membrane Association of the PTEN Tumor Suppressor: Molecular Details of the Protein-Membrane Complex from SPR Binding Studies and Neutron Reflection” (PLoS ONE, 2012).)
